Tests used:
Assay type in all cases: binding
[1] = biological target: T1, panel of 442 kinases (Homo sapiens, UniProt Q8N568); settings: Compound Concentration 10 µM
T1 construct: purchased KINOMEscan
Description: (§1) We assessed the selectivity of members of this scaffold using the KINOMEscan methodology across a near comprehensive panel of 442 kinases [[18,27]].

[2] = biological target: T2, panel of 442 kinases (Homo sapiens, UniProt O00506); settings: kinase YSK1; compound concentration 10 µM
T2 construct: purchased KINOMEscan
T2 sequence (O00506 whole entry): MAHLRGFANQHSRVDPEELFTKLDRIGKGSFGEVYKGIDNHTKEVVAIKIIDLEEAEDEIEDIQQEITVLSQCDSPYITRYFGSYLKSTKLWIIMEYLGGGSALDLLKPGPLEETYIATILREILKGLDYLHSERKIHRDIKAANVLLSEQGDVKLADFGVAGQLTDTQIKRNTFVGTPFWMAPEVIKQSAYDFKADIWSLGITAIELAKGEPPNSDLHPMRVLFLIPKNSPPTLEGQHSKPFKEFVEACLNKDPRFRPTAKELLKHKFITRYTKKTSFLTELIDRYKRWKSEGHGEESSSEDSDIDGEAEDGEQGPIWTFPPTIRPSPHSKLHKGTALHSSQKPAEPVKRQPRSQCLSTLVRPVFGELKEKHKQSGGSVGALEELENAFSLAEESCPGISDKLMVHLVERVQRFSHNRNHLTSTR
Description: as §1

[3] = biological target: T3, panel of 442 kinases (Homo sapiens, UniProt Q16539); settings: Compound Concentration 10 µM
T3 construct: purchased KINOMEscan
T3 sequence (Q16539 whole entry): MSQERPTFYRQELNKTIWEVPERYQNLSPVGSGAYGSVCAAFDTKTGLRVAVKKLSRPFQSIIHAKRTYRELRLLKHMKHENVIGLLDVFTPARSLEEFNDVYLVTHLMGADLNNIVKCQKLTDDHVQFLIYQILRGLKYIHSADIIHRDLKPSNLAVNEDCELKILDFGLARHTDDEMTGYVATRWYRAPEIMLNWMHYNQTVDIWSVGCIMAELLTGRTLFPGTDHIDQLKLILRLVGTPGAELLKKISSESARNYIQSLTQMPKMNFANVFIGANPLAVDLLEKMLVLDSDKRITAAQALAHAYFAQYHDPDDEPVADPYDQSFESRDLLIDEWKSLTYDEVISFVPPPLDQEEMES
Description: as §1

[4] = biological target: T4, panel of 442 kinases (Homo sapiens, UniProt Q16659); settings: Compound Concentration 10 µM
T4 construct: purchased KINOMEscan
T4 sequence (Q16659 whole entry): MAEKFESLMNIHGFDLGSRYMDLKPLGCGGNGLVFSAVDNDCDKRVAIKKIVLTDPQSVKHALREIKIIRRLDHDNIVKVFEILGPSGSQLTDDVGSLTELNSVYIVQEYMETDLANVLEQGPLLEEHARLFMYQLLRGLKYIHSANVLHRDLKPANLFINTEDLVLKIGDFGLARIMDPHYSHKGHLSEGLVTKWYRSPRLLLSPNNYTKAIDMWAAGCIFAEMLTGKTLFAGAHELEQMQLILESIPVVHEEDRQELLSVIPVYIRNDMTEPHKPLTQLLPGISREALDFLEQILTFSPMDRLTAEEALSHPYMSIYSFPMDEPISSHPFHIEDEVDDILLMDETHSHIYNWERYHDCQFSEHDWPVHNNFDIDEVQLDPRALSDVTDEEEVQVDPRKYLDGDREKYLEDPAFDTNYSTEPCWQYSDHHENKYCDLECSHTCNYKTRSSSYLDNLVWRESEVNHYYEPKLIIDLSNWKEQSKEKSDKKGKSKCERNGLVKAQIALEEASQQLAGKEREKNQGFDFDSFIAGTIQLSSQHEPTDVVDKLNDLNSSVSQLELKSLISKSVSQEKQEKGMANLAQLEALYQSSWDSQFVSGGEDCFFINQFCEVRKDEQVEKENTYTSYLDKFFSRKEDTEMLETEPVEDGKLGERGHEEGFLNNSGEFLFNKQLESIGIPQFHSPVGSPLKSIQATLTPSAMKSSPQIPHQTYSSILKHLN
Description: as §1

T1 sequence (Q8N568 whole entry): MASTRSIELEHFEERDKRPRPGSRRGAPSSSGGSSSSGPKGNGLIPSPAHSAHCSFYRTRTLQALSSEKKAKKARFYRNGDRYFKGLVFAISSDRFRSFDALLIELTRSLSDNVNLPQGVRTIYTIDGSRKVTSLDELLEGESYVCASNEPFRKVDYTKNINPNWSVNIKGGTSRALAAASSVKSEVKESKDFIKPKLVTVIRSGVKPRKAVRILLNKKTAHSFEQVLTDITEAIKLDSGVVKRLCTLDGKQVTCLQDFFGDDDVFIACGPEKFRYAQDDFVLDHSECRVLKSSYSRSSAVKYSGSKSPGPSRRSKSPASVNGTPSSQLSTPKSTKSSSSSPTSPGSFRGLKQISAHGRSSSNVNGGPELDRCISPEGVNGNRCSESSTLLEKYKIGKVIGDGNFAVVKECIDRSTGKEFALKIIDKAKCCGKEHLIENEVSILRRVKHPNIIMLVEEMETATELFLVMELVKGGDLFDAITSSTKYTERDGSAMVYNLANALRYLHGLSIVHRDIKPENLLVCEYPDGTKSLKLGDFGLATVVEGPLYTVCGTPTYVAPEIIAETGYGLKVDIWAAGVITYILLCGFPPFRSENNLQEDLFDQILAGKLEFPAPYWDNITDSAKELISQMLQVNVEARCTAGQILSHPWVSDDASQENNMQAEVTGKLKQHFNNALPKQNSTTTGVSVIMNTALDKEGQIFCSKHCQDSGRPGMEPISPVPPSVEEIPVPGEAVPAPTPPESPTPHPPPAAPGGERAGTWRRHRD

| Structure (SMILES) | KINOMEscan: DCAMKL2 [1] | % Ctrl, YSK1 [2] | KINOMEscan: p38-alpha [3] | KINOMEscan: ERK3 [4] |
| --- | --- | --- | --- | --- |
| COc1cc(C(=O)N2CCC(N3CCN(C)CC3)CC2)ccc1Nc1ncc2c(n1)N1CCc3cccc(c31)C(=O)N2C [Compound 24] | 1.2 | 60 % Ctrl | – | – |
| CCOc1cc(C(=O)N2CCC(N3CCN(C)CC3)CC2)ccc1Nc1ncc2c(n1)N(C1CCCC1)c1ccccc1C(=O)N2C [Compound 26] | 3.6 | 90 % Ctrl | 94 | 100 |
| COc1cc(C(=O)N2CCC(N3CCN(C)CC3)CC2)ccc1Nc1ncc2c(n1)N(C1CCCC1)c1ccccc1C(=O)N2C [Compound 25, 11-cyclopentyl-2-((2-methoxy-4-(4-(4-methylpiperazin-1-yl)piperidine-1-carbonyl)phenyl)amino)-5-methyl-5H-benzo[e]pyrimido[5,4-b][1,4]diazepin-6(11H)-one] | 1.1 | 66 % Ctrl | 99 | 100 |
| COc1cc(C(=O)N2CCC(N3CCN(C)CC3)CC2)ccc1Nc1ncc2c(n1)N(C)c1ccccc1C(=O)N2C [15 (LRRK2-IN-1)] | 0.45 | 68 % Ctrl | 87 | 100 |

— paper PMC3914206
